Reference: publication PMC4663167 (Insect biochemistry and molecular biology, 2015)

Each compound was assayed against PhumOR2 (odorant receptor) (Pediculus humanus, UniProt A0ACM8QMA3).
Format: cell-based
For `CC(O)c1ccccc1` (stereo not drawn) [1-phenylethanol], the EC50 was 1300 µM. Work on `CC1CCC(O)CC1` (stereo not drawn) [4-methylcyclohexanol] yielded an EC50 of 120 µM. Work on `Cc1cccc(O)c1C` [2,3-dimethylphenol] yielded an EC50 of 103 µM.
